# Paper PMC5634595, “Properties of halogenated and sulfonated porphyrins relevant for the selection of photosensitizers in anticancer and antimicrobial therapies” (PLoS ONE, 2017)
# Key:
# HSA = HSA (Homo sapiens, UniProt P02768); test: Binding to HSA by fluorescence quenching (Stern-Volmer, Scatchard)
# Method: The binding of the PS to HSA was studied by spectrofluorometry at room temperature. An aqueous (phosphate buffer saline, PBS) solution of HSA was titrated with varying concentrations of the respective porphyrin solutions. HSA was excited at 295 nm and fluorescence was recorded between 300 nm and 400 nm. The systematic lowering of HSA fluorescence with increasing photosensitizer concentrations was noted and used in the determination of the binding constants and the number of binding sites on HSA according to Scatchard equation. The changes in HSA fluorescence intensity were related to porphyrin concentrations by the Stern-Volmer relationship. The binding constant (Kb) of PS to lipoproteins was also determined using the spectroscopic titration method. The sets of steady-state emission spectra of PBS solutions with different concentrations of HDL and LDL, to which the porphyrin (5 μM) was added were measured. The fluorescence intensity of the dye increased upon its partitioning into the lipoproteins. To obtain Kb, F versus [L] data were plotted and fitted to by a nonlinear regression routine.
# [1] = Dynamic light scattering and zeta potential of PS-Pluronic L121 micelles; type: physicochemical; conditions: Pluronic L121-based formulation, DLS, homogeneous distribution
# Method: Micellar formulations with Pluronic […] were prepared according to a method recently described. The micelles were characterized by Dynamic Light Scattering (DLS) using a Malvern Zetaziser Nano ZS system. The apparent diffusion coefficients of the micelles were obtained from the normalized time correlation function of the scattered electric field, g(1)(τ), using the cumulants analysis. An average value was obtained from repeated measurements for each sample (N = 3).
# CT26 cells = test: Dark cytotoxicity, MTT; type: cell-based, murine; conditions: CT26, 100 μM, 24 h
# Method: (§1) The studies were performed on human lung adenocarcinoma (A549), murine colon carcinoma (CT26) and murine endothelial/vascular epithelium (2H11) cell lines. A549, CT26 and 2H11 cells were grown in full-strength DMEM with 4.5 g/L glucose, L-glutamine, sodium pyruvate and 3.7 g/L NaHCO3 (BioTech) with addition of 10% fetal bovine serum (BioTech, Poland) and supplemented by antibiotics (penicillin/streptomycin). Before the experiments, the cells were washed with PBS, removed by trypsinization, then re-plated into microplate (or culture flask) with appropriate cells density and maintained in a humidified atmosphere at 37 °C and 5% CO2.
# (§2) MTT cytotoxicity assay (which determines the mitochondrial activity), based upon the ability of living cells to reduce (3-(4,5-dimethylthiazol-2-yl)2,5-diphenyl tetrazolium bromide (MTT) into formazan was used to assess photosensitizer-mediated cytotoxicity. Two identical 96-well plates with A549, CT26 or 2H11 cell cultures seeded on 96-plate microplate (10^4 per well) were used for each experiment. When the cells were attached to the plates, PS solution in growth medium (DMSO<0.5%) at concentrations between 0.1 to 100 μM was added to the culture. Treated cultures were incubated for optimal time (estimated experimentally) at 37°C in the dark. […] Data were expressed as mean absorbance value of six samples and standard error of the mean.
# 2H11 cells = test: Dark cytotoxicity, MTT; type: cell-based, murine; conditions: 2H11, 100 μM, 24 h
# Method: as §1, §2
# [2] = n-Octanol/PBS partition coefficient, shake-flask; type: physicochemical; conditions: modified shake-flask
# Method: The n-octanol/PBS partition coefficients were measured following shake-flask method with minor modifications. The photosensitizers were dissolved in n-octanol previously saturated with a solution of PBS. The same volume of PBS saturated with n-octanol was added and mixed on a vortex device and then the phases were separated by centrifugation. Next, the PBS/n-octanol phase was taken and diluted to obtain 0.5% of PBS/n-octanol content in the final solution. This solution was left into the ultrasonic bath. The fluorescence of each solution was measured using Fluorescence Spectrometer LS 55 (Perkin Elmer) and compared with calibration curve to obtain the concentration of the photosensitizer. Partition coefficients were calculated from the ratio coct/cPBS, where coct and cPBS are the concentrations of the porphyrin derivatives in the n-octanol and in the PBS.
# A549 cells = test: Dark cytotoxicity, MTT; type: cell-based, human; conditions: A549, 100 μM, 24 h
# Method: as §1, §2
# [3] = tested on: P. aeruginosa (ATCC19660); test: Photodynamic inactivation of microorganisms, CFU; type: cell-based; conditions: PDI 10 J/cm^2, 420±20 nm, concentration not given
# Method: (§3) The microorganisms used in PDI were: S. aureus (8325–4), E. faecalis (ATCC29212), E. coli (K12), P. aeruginosa (ATCC19660), S. marcescens (ATCC14756) and C. albicans (DAY286). The planctonic bacteria cells were cultured in brain heart infusion broth (Sigma-Aldrich) and LB Broth/Lennox (BioShop Lab Science Products) in an orbital incubator (37°C, 130 rpm), until the optical density reached 0.5, which corresponds to approximately 10^7 CFU per mL. The fungal yeasts were cultured in YPD Broth (BioShop) with overnight aeration at 30°C to reach ca. 10^6 CFU/mL. For PDI experiments cell suspensions of bacteria or fungal yeasts were incubated with various concentrations of the porphyrins at pH 7.4 (PBS) for 1 h in the dark at room temperature. Aliquots (1 mL) were transferred to a 12-well plate and illuminated with a blue light. We used blue-LED array (420±20 nm) to deliver a light dose of 10 J/cm^2 (measured with a power meter). Cells treated with photosensitizers in the dark were incubated covered with aluminum foil for the same time as the PDI groups (1 h). After illumination (or dark incubation) samples were shaken, diluted in PBS, mixed and plated (LB agar). Aliquots were taken from each well to determine the CFU value. Plates were streaked in triplicate and incubated for 12–36 h at 30 °C (for fungal yeasts) or 37 °C (for bacteria) in the dark to allow colony formation.
# E. coli (K12) = test: Photodynamic inactivation of microorganisms, CFU; type: cell-based; conditions: PDI 10 J/cm^2, 420±20 nm, concentration not given
# Method: as §3
# S. aureus (8325–4) = test: Photodynamic inactivation of microorganisms, CFU; type: cell-based; conditions: 20 μM, 10 min irradiation (10 J/cm^2, 420±20 nm)
# Method: as §3
# Sequence of HSA (P02768 25-609): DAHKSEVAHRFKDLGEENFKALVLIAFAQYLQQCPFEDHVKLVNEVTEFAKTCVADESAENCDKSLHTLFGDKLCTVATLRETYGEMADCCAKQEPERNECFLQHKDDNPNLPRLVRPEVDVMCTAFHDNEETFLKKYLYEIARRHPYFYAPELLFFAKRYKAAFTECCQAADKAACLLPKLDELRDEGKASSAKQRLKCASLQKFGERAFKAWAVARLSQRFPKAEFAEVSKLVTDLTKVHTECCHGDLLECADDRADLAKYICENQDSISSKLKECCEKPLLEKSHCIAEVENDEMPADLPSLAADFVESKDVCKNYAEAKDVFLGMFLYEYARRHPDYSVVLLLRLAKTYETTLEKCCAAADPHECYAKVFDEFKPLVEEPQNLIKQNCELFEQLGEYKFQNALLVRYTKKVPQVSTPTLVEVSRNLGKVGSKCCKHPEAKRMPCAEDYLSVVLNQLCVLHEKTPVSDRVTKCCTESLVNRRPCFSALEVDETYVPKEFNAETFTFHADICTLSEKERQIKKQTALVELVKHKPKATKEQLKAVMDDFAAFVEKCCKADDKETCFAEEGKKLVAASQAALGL
smiles,measurement,setting,value
"O=S(=O)(O)c1ccc(F)c(-c2c3nc(c(-c4c(F)ccc(S(=O)(=O)O)c4F)c4ccc([nH]4)c(-c4c(F)ccc(S(=O)(=O)O)c4F)c4nc(c(-c5c(F)ccc(S(=O)(=O)O)c5F)c5ccc2[nH]5)C=C4)C=C3)c1F [F2POH, 5,10,15,20-tetrakis(2,6-difluoro-3-sulfophenyl)porphyrin]","KSV (Stern-Volmer constant), HSA","HSA; HSA fluorescence quenching, PBS, room temperature",2.24 10^5M^-1
same,"n (number of binding sites), HSA",HSA; Scatchard analysis,1
same,Particle Diameter (hydrodynamic diameter),[1],ca. 115 nm
same,Cytotoxicity in the dark,CT26 cells,25%
same,Cytotoxicity in the dark,2H11 cells,25%
same,logP,[2],-1.74
same,Cytotoxicity in the dark,A549 cells,25%
same,Decrease in survival / bacteria CFU killing,[3],1.5–2 logs
same,Decrease in survival,E. coli (K12),1.5–2 logs
same,Reduction in colony forming units (CFU),S. aureus (8325–4),6 logs
